Measurements published in US7550438B2, “Methods for production of growth-promoting proteins and peptides for kidney epithelial cells” (The University of Chicago, priority 1997, dated 2009).
Several values for one entry are separate records, joined by “and”; a condition that tells them apart may be missing. Equal values may be shown once. Entries after “also recorded” stand apart in the source; their conditions may differ. Read-outs that look alike come from different tables or passages of the source. No end group written: not given here.

How the values were obtained:
BSC-1 cells [1] = experiment: Time of contact with cells required to commit them to accelerated growth (washout, count at four days); format: cell-based, African green monkey
Procedure: Confluent monolayers of BSC-1 cells are prepared as herein and exposed to the 14-Ser peptide (0.5 μg/ml) for different amounts of time (0 to 30 minutes). At the end of the defined exposure period, culture medium containing the mitogen was aspirated, the monolayer was rinsed to remove non-adherent peptide, and fresh medium was added. Four days later the number of cells in the culture was counted.
In these experiments a solution containing the peptide of interest was added to the cell monolayer; culture medium was then aspirated at a specified time thereafter. Then fresh medium without the peptide was added and the number of cells was counted four days later.

[2] = test system: monkey kidney epithelial cells of the BSC-1 line; experiment: Growth-promoting (mitogenic) activity: number of cells in BSC-1 cultures counted four days after addition; format: cell-based, African green monkey; details: for stimulation of growth (increase in cell number compared to control at four days): agent alone at maximal mitogenic concentration (14-Ser 0.5 μg/ml; EGF, IGF-I 50 ng/ml; acidic FGF 100 pg/ml; basic FGF 1,000 pg/ml; vasopressin 75 pg/ml; K 10.4 mM; Na 180 mM); for stimulation of growth in the presence of the 14-Ser peptide: mitogenic signal at maximal concentration plus 14-Ser peptide 0.5 μg/ml; for stimulation of growth in the presence of the 14-Ser peptide / mitogenic activity on BSC-1 cells (in words): four days; for EC50: read-out: Growth-Stimulation K½; for mitogenic activity on BSC-1 cells (in words): peptide 0.5 to 20 μg/ml
Procedure: For the assay, cells were detached from the dish with a solution of trypsin and an aliquot was counted in a hemocytometer.
Nontransformed monkey kidney epithelial cells of the BSC-1 line were grown to confluence in Dulbecco's modified Eagle's medium containing 1% calf serum and […] in 55-mm culture dishes at 38° C. in a CO2 incubator. When cells achieved a density of about 10^6 per dish, the spent medium was removed and replaced with fresh medium containing 0.5% calf serum and the 14-amino acid peptide (0.5 μg/ml). Additions of each of the mitogenic signals at maximal concentration were made to the culture medium. Four days later the number of cells in each culture was counted in a hemocytometer. Values obtained were the mean of 3 separate cultures.
Nontransformed monkey kidney epithelial cells of the BSC-1 line were grown to confluence in Dulbecco's modified Eagle's medium containing 1% calf serum and 1.6 μM biotin at 38° C. in a CO2 incubator. When cells achieved a density of about 10^6 per dish, the spent medium was removed and replaced with fresh medium containing 0.5% calf serum and different amounts of the two peptides. Four days later the number of cells in each culture was counted. Each value is the mean of 3 separate cultures.
To delineate the sequence of the smallest peptide that could stimulate renal cell growth, synthetic peptides of different lengths were prepared (see below), and purified by reversed-phase HPLC on a C18 column.
The peptide of interest was then purified on a reversed-phase C18 column HPLC as described herein using a gradient of 1-80% acetonitrile in 0.1% trifluroacetic acid (TFA). The purified peptide was then lyophilized to remove the acetonitrile and TFA and the lyophilized powder was weighed, dissolved in buffer and added to the culture medium to measure its effect on the growth of monkey kidney epithelial cells as described herein. […] A value termed the K1/2, was used.

[3] = test system: rats with mercuric chloride-induced acute renal failure; experiment: Mercuric chloride-induced acute renal failure in rats: survival and renal function; format: in vivo, rat
From the text: Nephrotoxic and ischemic acute renal failure (ARF) induced experimentally in rats have long been used to model this syndrome in humans. […] Male rats weighed 200-225 gm at the start of the experiment. This dose was used because preliminary experiments indicated it results in survival of 25-50% of the animals 7 days later. […] An increase in serum creatinine concentration signals a decline in renal function because the injured kidney is unable to excrete endogenous creatinine in the urine so it accumulates in the blood.
The synthetic peptide […] (14-Ser) (SEQ ID NO: 15) (dissolved in sterile 0.01% bovine serum albumin in phosphate-buffered saline) was injected subcutaneously into rats to determine its effect on survival, recovery of renal fucntion, and stimulation of DNA synthesis. Multiple different peptides were studied including 14-Ser, […] (14-mer) (SEQ ID NO: 39), […] (16-mer) (SEQ ID NO: 4) […] (11-mer) (SEQ ID NO: 6), and […] (11-mer) (SEQ ID NO: 41). Different concentrations and times of administration were tested and compared.
Acute tubular necrosis was induced in 44 rats by the subcutaneous (s.c.) injection of mercuric chloride, and a single dose of 14-ser was administered s.c. 1 hour afterwards. Different amounts of the peptide were given to assesses its capacity to affect the outcome. Survival 7 days later was about twice as high in animals given 100-150 μg of peptide (63%) than in rats given 0-75 μg peptide (29%).
To determine the effect of the peptide on survival and recovery of renal function, acute tubular necrosis was induced in 59 rats; 29 received 14-Ser (100 μg/rat) and 30 received an equal volume of the vehicle s.c. 1 hour after administration of mercuric chloride. Enhanced survival (top panel) and renal functional recovery (bottom panel) of rats give a WGF-derived peptide after mercuric chloride-induced acute tubular necrosis are shown in FIG. 2A and FIG. 2B. Mercuric chloride was injected subcutaneously into each of the 59 rats, and 1 hour later 100 μg of WGF peptide (14-Ser) (n=29 rats) or the vehicle […] was given. Survival was greater in rats given the peptide than in animals receiving the vehicle as early as day 3 after administration of mercuric chloride. Blood was obtained from the tail vein on the days indicated, and serum creatinine concentration was measured. […] On days 2, 3 and 4, the lower creatinine concentration in peptide-treated rats indicates accelerated recovery of kidney function.
Experimental ARF was induced in rats by subcutaneous injection of mercuric chloride. The synthetic peptide […] […] In one experiment a total of 17 rats were injected with a dose of mercuric chloride shown to induce ARF. The different amounts of the peptide (known to stimulate growth of kidney cells in culture) were injected into the animals to assess capacity to improve the outcome. […] In contrast, two of three rats given 100 micrograms of peptide were alive, as were five of six given 200 micrograms. In summary, none of eight rats (0%) given up to 50 micrograms of peptide survived, whereas seven of nine (78%) given 100-200 micrograms did. Thus, the 11-mer WGF peptide improves survival in nephrotoxic ARF.
[…] Four days later, 63% of rats given the 14-Ser peptide were alive compared to 25% of animals receiving the vehicle (chi squared, P-0.0499); 50% of rats receiving EGF were alive (chi squared, P=N.S.). On day 5, 50% of rats given EGF were alive, compared to 12.5% of animals given the vehicle (chi squared, P=0.0436). […] These observations indicate that the 14-Ser peptide and EGF given after renal injury are similar in their ability to improve survival from the ARF syndrome.

BSC-1 cells [4] = experiment: Inhibition of WGF and WGF-derived peptide mitogenesis in BSC-1 cells; format: cell-based, African green monkey; details: for effect of pentamer on growth stimulation by hexamer YPQGNH: pentamer added to culture medium, hexamer added at the same time or afterwards
From the text: In these studies the pentamers, PQGNH (SEQ ID NO: 36) or YPQGN (SEQ ID NO: 3) were synthesized, purified by HPLC and then assayed for growth-promoting activity. […] Because the pentamers are not mitogenic, when they bind to the site, growth is not observed. After pentamers are bound to the site, the pentamers appear to prevent the hexapeptide from gaining access to the membrane.
Transforming growth factor (TGF)-β2 is an autocrine growth inhibitor secreted by BSC-1 cells that limits proliferation in culture. Exogenous TGF-β2 was added to the culture medium to determine its capacity to inhibit the growth-promoting effect of 14-Ser. TGF-β2 at a concentration of 1 ng/ml was sufficient to abolish the 25% stimulation of growth induced by 14-Ser. At a TGF-β2 concentration of 2 ng/ml, growth was inhibited by 30% in the presence or absence of 14-Ser; at 10 ng/ml, inhibition was 60%.
Because TGF-β2 inhibits proliferation induced by diverse mitogens, a more specific inhibitor was sought. […] Cells were preincubated for 30 minutes with the pentapeptide YPQGN (SEQ ID NO: 3). The culture medium was then aspirated, the monolayer was rinsed, fresh medium was added, and the number of cells counted 4 days later. Preincubation of cells with YPQGN (SEQ ID NO: 3) inhibited the mitogenic effect of the 6-amino acid peptide.

[5] = peptide alone, BSC-1 cells, 4 days in culture

Nc1ncnc2c1ncn2[C@@H]1O[C@H](COP(=O)(O)O)[C@@H](O)[C@H]1O [adenosine monophosphate, reference compound]
commitment time (BSC-1 cells [1]): 14 h

[Cl-].[K+] [potassium chloride, reference compound]
stimulation of growth (increase in cell number compared to control at four days) [2]: 18%
stimulation of growth in the presence of the 14-Ser peptide [2]: 35%

[Cl-].[Na+] [sodium chloride, reference compound]
stimulation of growth (increase in cell number compared to control at four days) [2]: 25%
stimulation of growth in the presence of the 14-Ser peptide [2]: 41%

AQPYPEGNHEA
rats dead three days later ([3]; 50 micrograms s.c. two hours after mercuric chloride): three of three
survival three days later ([3]; 100-200 micrograms of peptide, nine rats): 78%
rats alive three days later ([3]; 100 micrograms s.c. two hours after mercuric chloride): two of three
rats alive three days later ([3]; 200 micrograms s.c. two hours after mercuric chloride): five of six
survival three days later ([3]; up to 50 micrograms of peptide (incl. saline alone), eight rats): 0%
EC50 [2, 5]: 206 nM

AQPYPEGNHEASYG
EC50 [2, 5]: 128 nM

AQPYPQGNHEAAYG
EC50 ([2]; + keratan sulfate (2 μg/ml for 5 minutes prior to peptide, b158; 10 μg/ml)): 54 nM
EC50 [2, 5]: 199 nM

AQPYPQGNHEATSSSF
EC50 [2, 5]: 218 nM

FPEGNH
EC50 [2, 5]: 2720 nM

MAPS peptide: 11-mer AQPYPQGNHEA linked to a branched polylysine core, four branches each ligated to one 11-mer molecule (also: four copies linked to a branched polylysine core (MAPS))
mitogenic activity on BSC-1 cells (in words) [2]: stimulated DNA synthesis and proliferation

PQGNH
effect of pentamer on growth stimulation by hexamer YPQGNH (BSC-1 cells [4]): blocked
mitogenic activity on BSC-1 cells (in words) [2]: Neither was mitogenic; also recorded: do not alter growth

Pentosan polysulfate [reference compound]
effect on activity of WGF (BSC-1 cells [4]): blocked

QPYPQG
mitogenic activity on BSC-1 cells (in words) [2]: not mitogenic

WAVGHLM [WAVGHLM-amide, reference compound]
EC50 [2, 5]: ~10000 nM

YPEGDH
EC50 [2, 5]: 11000 nM

YPEGKH
EC50 [2, 5]: 14100 nM

YPQGN
effect of preincubation on mitogenic effect of partially-purified Wound Growth Factor (BSC-1 cells [4]): completely abolished
effect of preincubation on mitogenic effect of the 6-amino acid peptide YPQGNH (BSC-1 cells [4]; cells preincubated 30 minutes, rinsed, count 4 days later): inhibited
effect of pentamer on growth stimulation by hexamer YPQGNH (BSC-1 cells [4]): blocked
effect of preincubation on growth-promoting effect of the 14-Ser peptide (BSC-1 cells [4]; preincubation for 10 or 30 minutes): completely blocked
mitogenic activity on BSC-1 cells (in words) [2]: Neither was mitogenic; also recorded: do not alter growth

YPQGNH [NH2-tyrosine-proline-glutamine-glycine-asparagine-histidine-COOH]
EC50 [2, 5]: 352 nM and 332 nM

YPQGNH [YPQGNH-amide]
EC50 [2, 5]: 8850 nM

YPQGNHEASYG
EC50 ([2]; + heparin (1 μg/ml)): 166 nM
EC50 [2, 5]: 166 nM

YPRGNH [reference compound]
stimulation of growth (increase in cell number compared to control at four days) [2]: 10%
mitogenic activity on BSC-1 cells (in words) [2]: not mitogenic to the same extent

acidic fibroblast growth factor [acidic FGF, reference compound]
concentration equivalent in mitogenic potency to partially-purified WGF [2]: 0.02 ng/mL
effect of keratan sulfate on mitogenic activity [2]: no effect
stimulation of growth (increase in cell number compared to control at four days) [2]: 17%
effect of heparin on mitogenic activity ([2]; heparin added to BSC-1 cells with the factor): inhibits
combined mitogenic effect with WGF (additivity) ([2]; maximal concentrations, 11-mer with wound conditioned buffer): additive
stimulation of growth in the presence of the 14-Ser peptide [2]: 44%

insulin-like growth factor-I [IFG-I, reference compound]
stimulation of growth (increase in cell number compared to control at four days) [2]: 20%
stimulation of growth in the presence of the 14-Ser peptide [2]: 38%

B1: TGF-β2: autocrine growth inhibitor secreted by BSC-1 cells (protein, UniProt P61811 303-414, looked up)
Transforming growth factor …: ALDAAYCFRNVQDNCCLRPLYIDFKRDLGWKWIHEPKGYNANFCAGACPYLWSSDTQHSRVLSLYNTINPEASASPCCVSQDLEPLTILYYIGKTPKIEQLSNMIVKSCKCS
effect on the 25% stimulation of growth induced by 14-Ser (BSC-1 cells [4]; TGF-β2 1 ng/ml): abolish
growth inhibition (BSC-1 cells [4]; TGF-β2 2 ng/ml, in the presence or absence of 14-Ser): 30%
growth inhibition (BSC-1 cells [4]; TGF-β2 10 ng/ml): 60%
